Where two headings read alike, the source gives them in different places.
How the values were obtained:
[1] = target: HIV-1 integrase (Human immunodeficiency virus type 1 group M subtype B, UniProt P04585); test: HIV-1 integrase inhibition assay (microtiter plate, immobilised substrate DNA, Dig-labelled target DNA, OD 405 nm); type: biochemical
Experimental: Substrate DNA and target DNA, which sequences were indicated below, were synthesized by Amersham Pharmacia Biotech and dissolved in KTE buffer (composition: 100 mM KCl, 1 mM EDTA, 10 mM Tris-HCl (pH 7.6)) at concentration of 2 pmol/μl and 5 pmol/μl, respectively. The DNA solutions were annealed with each complement by slowly cooling after heating.
Streptavidin, obtained from Vector Laboratories, was dissolved in 0.1 M carbonate buffer (composition: 90 mM Na2CO3, 10 mM NaHCO3) at concentration of 40 μg/ml. After coating each well of microtiter plates (obtained from NUNC) with 50 μl of the above solution at 4° C. overnight, each well was washed twice with PBS (composition: 13.7 mM NaCl, 0.27 mM KCl, 0.43 mM Na2HPO4, 0.14 mM KH2PO4) and blocked with 300 μl of 1% skim milk in PBS for 30 min. Additionally, each well was washed twice with PBS and added 50 μl of substrate DNA solution (2 pmol/μl). The microtiter plates were kept at room temperature for 30 min. Then, each well was washed twice with PBS and once with H2O.
Subsequently, in the each well prepared above were added 45 μl of the reaction buffer prepared from 12 μl of the buffer (composition: 150 mM MOPS (pH 7.2), 75 mM MnCl2, 50 mM 2-mercaptoethanol, 25% glycerol, 500 μg/ml bovine serum albumin-fraction V), 1 μl of target DNA (5 pmol/μl), and 32 μl of the distilled water. Additionally, 6 μl of either a test compound in DMSO or DMSO for positive control(PC) was mixed with the above reaction buffer, then 9 μl of an integrase solution (30 pmol) was added and mixed well. In the well of negative control (NC) was added 9 μl of the integrase dilution buffer (composition: 20 mM MOPS (pH7.2), 400 mM potassium glutamate, 1 mM EDTA, 0.1% NP-40, 20% glycerol, 1 mM DTT, 4M urea).
The microtiter plates were incubated at 30° C. for 1 hour. The reaction solution was removed and each well was washed twice with PBS. Subsequently, each well of the microtiter plates was filled with 100 μl of anti-digoxigenin antibody labeled with alkaline phosphatase (Sheep Fab fragment: obtained from Boehringer) and incubated at 30° C. for 1 hour. Then, each well was washed twice with 0.05% Tween20 in PBS and once with PBS. Next, 150 μl of the Alkaline phosphatase reaction buffer (composition: 10 mM p-Nitrophenylphosphate (obtained from Vector Laboratories), 5 mM MgCl2, 100 mM NaCl, 100 mM Tris-HCl (pH 9.5)) was added in each well. […] The optical density (OD) at 405 nm of each well was measured and the percent inhibition was determined by the following expression.
The percent inhibition (%)=100[1-{(C abs.−NC abs.)/(PC abs.−NC abs.)}]
When the percent inhibition (%) is X % at the concentration of x μg/ml and the percent inhibition (%) is Y % at the concentration of y μg/ml, one of which is more than 50% and the other is less than 50%, IC50 can be determined by the following expression.
IC50(μg/ml)=x-{(X-50)(x-y)/(X-Y)}
Compound No. in the Table 1 is the same as compound No. of the above example.

[2] = UV spectrum measurement with stepwise addition of Mg2+ solution (chelate formation); type: physicochemical; conditions: compound 0.05 mmol/l, Mg2+ 0 to 3.6 mol/l, 240 nm to 500 nm, cell length 1 cm
Experimental: Compounds C-1, D-2, D-5 and D-6 were employed to determine UV spectra with treating dropwise with metal solutions.
The UV spectrum measurement was conducted with the cell length of 1 cm at a wavelength of 240 nm to 500 nm. Each test solution was obtained by preparing Solutions A^1, A2, B and C as shown below, adding an indicated volume of Solution A^1 or A2 to 1 ml of Solution B, making the total, volume 10 ml with Solution C. The concentrations of Compounds C-1, D-2, D-5 and D-6 in test solutions here were all adjusted at 0.05 mmol/l, and the concentrations of Mg^2+ were as indicated in Table 5.
Solution A1: MgCl2 4 mol/l, MOPS 50 mmol/l, NaOH 23.6 mmol/l, Solvent: Water
Solution A2: MgCl2 1 mol/l, MOPS 50 mmol/l, NaOH 23.6 mmol/l, Solvent: Water
Solution B: Compound 1 0.5 mmol/l, Solvent: DMSO
Solution C: NaCl 3 mol/l, MOPS 50 mmol/l, 23.6 mmol/l, Solvent: Water
For the purpose of indicating the change in the UV spectrum as a result of the increase in the metal ion concentration, one figure contained each UV spectrum curve at various metal ion concentrations.

Row | Compound | melting point | IC50 [1] [µM] | IC50 ([1]; concentration of the compound at percent inhibition 50%, MnCl2 buffer, 30° C., 1 hour) [µg/mL] | change in the UV spectrum curve as the metal ion concentration was increased [2]
1 | O=C(C=C(O)c1nn[nH]n1)c1ccc(Cc2ccc(F)cc2)o1 [Compound A-1, 1-[5-(4-Fluorobenzyl)furan-2-yl]3-hydroxy-3-(2H-tetrazol-5-yl)-propenone] | 121 to 123 °C | 1.27 |  | 
2 | O=C(C=C(O)c1ncccn1)c1ccc(Cc2ccc(F)cc2)o1 [Compound A-2, 1-[5-(4-Fluorobenzyl)furan-2-yl]-3-hydroxy-3-(pyrimidin-2-yl)-propenone] | 77 to 80 °C | 0.247 |  | 
3 | O=C(C=C(O)c1cnccn1)c1ccc(Cc2ccc(F)cc2)o1 [Compound A-3, 1-[5-(4-Fluorobenzyl)furan-2-yl]-3-hydroxy-3-(pyrazin-2-yl)-propenone] | 127 to 129 °C | 1.85 |  | 
4 | O=C(C=C(O)c1ccccn1)c1ccc(Cc2ccc(F)cc2)o1 [Compound A-4, 1-[5-(4-Fluorobenzyl)furan-2-yl]-3-hydroxy-3-(pyridin-2-yl)-propenone] | 84 to 85 °C | 0.619 |  | 
5 | O=C(O)c1ccnc(C(O)=CC(=O)c2ccc(Cc3ccc(F)cc3)o2)c1 [Compound A-5, 3(4-Carboxypyridin-2-yl)-1-[5-(4-fluorobenzyl)furan-2-yl]-3-hydroxy-propenone] | 208 to 210 °C | 0.191 |  | 
6 | O=C(O)c1ccc(C(O)=CC(=O)c2ccc(Cc3ccc(F)cc3)o2)nc1 [Compound A-6, 3-(5-Carboxypyridin-2-yl)-1-[5-(4-fluorobenzyl)furan-2-yl]-3-hydroxy-propenone] | 196 to 198 °C | 0.272 |  | 
7 | O=C(C=C(O)c1cc2ccccc2cn1)c1ccc(Cc2ccc(F)cc2)o1 [Compound A-7, 1-[5-(4-Fluorobenzyl)furan-2-yl]-3-hydroxy-3-(isoquinolin-3-yl)-propenone] | 154 to 156 °C | 3.75 |  | 
8 | O=C(C=C(O)c1ccon1)c1ccc(Cc2ccc(F)cc2)o1 [Compound A-9, 1-[5-(4-Fluorobenzyl)furan-2-yl]-3-hydroxy-3-(isoxazol-3-yl)-propenone] | 50 to 52 °C | 10.5 |  | 
9 | Cc1cc(C(O)=CC(=O)c2ccc(Cc3ccc(F)cc3)o2)no1 [Compound A-10, 1-[5-(4-Fluorobenzyl)furan-2-yl]-3-hydroxy-3-(5-methylisoxazol-3-yl)-propenone] | 95 to 97 °C | 5.5 |  | 
10 | O=C(C=C(O)c1ccco1)c1ccc(Cc2ccc(F)cc2)o1 [Compound B-1, 1-[5-(4-Fluorobenzyl)furan-2-yl]-3-(furan-2-yl)-3-hydroxy-propenone] | 44 to 45 °C | > 320 |  | 
11 | O=C(C=C(O)c1ccoc1)c1ccc(Cc2ccc(F)cc2)o1 [Compound B-2, 1-[5-(4-Fluorobenzyl)furan-2-yl]-3-(furan-37yl)-3-hydroxy-propenone] | 53 to 55 °C | > 320 |  | 
12 | O=C(C=C(O)c1cccs1)c1ccc(Cc2ccc(F)cc2)o1 [Compound B-3, 1-[5-(4-Fluorobenzyl)furan-2-yl]-3-(thiophen-2-yl)-3-hydroxy-propenone] | 50 to 52 °C | > 305 |  | 
13 | O=C(C=C(O)c1cccnc1)c1ccc(Cc2ccc(F)cc2)o1 [Compound B-4, 1-[5-(4-Fluorobenzyl)furan-2-yl]-3-hydroxy-3-(pyridin-3-yl)-propenone] | 53 to 54 °C | > 309 |  | 
14 | Cn1cccc1C(O)=CC(=O)c1ccc(Cc2ccc(F)cc2)o1 [Compound B-5, 1-[5-(4-Fluorobenzyl)furan-2-yl]-3-hydroxy-3-(1-methylpyrrol-2-yl)-propenone] | 75 to 76 °C | > 307 |  | 
15 | O=C(/C=C(\O)c1ccc[nH]1)c1ccc(Cc2ccc(F)cc2)o1 [Compound B-6, 1-[5-(4-Fluorobenzyl)furan-2-yl]-3-hydroxy-3-(pyrrol-2-yl)-propenone] |  | > 321 |  | 
16 | Cc1cc(C(O)=CC(=O)c2ccc(Cc3ccc(F)cc3)o2)on1 [Compound B-7, 1-[5-(4-Fluorobenzyl)furan-2-yl]-3-hydroxy-3-(3-methylisoxazol-5-yl)-propenone] | 106 to 107 °C | > 306 |  | 
17 | O=C(C=C(O)c1ccncc1)c1ccc(Cc2ccc(F)cc2)o1 [Compound B-8, 1-[5-(4-Fluorobenzyl)furan-2-yl]-3-hydroxy-3-(pyridin-4-yl)-propenone] | 90 to 92 °C | > 309 |  | 

Row | Compound | melting point | IC50 [1] [µM] | IC50 ([1]; concentration of the compound at percent inhibition 50%, MnCl2 buffer, 30° C., 1 hour) [µg/mL] | change in the UV spectrum curve as the metal ion concentration was increased [2]
18 | O=C(C=C(O)c1ncccc1C(=O)O)c1ccc(Cc2ccc(F)cc2)o1 [Compound B-9, 3-(3-Carboxypyridin-2-yl)-1-[5-(4-fluorobenzyl)furan-2-yl]-3-hydroxy-propenone] | 127 to 130 °C | > 272 |  | 
19 | OC(=Cc1cc(CCc2ccccc2)ncn1)c1nnn[nH]1 [Compound C-2] |  | 4.76 |  | 
20 | OC(=Cc1cc(CCc2ccccc2)ncn1)c1ncn[nH]1 [Compound C-3] |  | 1.7 |  | 
21 | OC(=Cc1cc(CCc2ccccc2)ncn1)c1nccs1 [Compound C-4] |  | 1.94 |  | 
22 | OC(=Cc1cc(CCc2ccccc2)ncn1)c1cnccn1 [Compound C-5] |  | 5.26 |  | 
23 | Cc1cc(C(O)=Cc2cc(CCc3ccccc3)ncn2)no1 [Compound C-6] |  | 2.73 |  | 
24 | O=C(O)C(O)=Cc1cnc(CCc2ccccc2)cn1 [Compound C-7] |  | 2.26 |  | 
25 | O=C(O)/C(O)=C/c1ccc(OCc2ccccc2)cn1 [Compound C-8] |  | 1.7 |  | 
26 | Cc1cc(C(O)=Cc2cc(CCc3ccccc3)ncn2)on1 [Compound D-1] |  | > 325 |  | 
27 | O=C(O)/C=C/c1cc(CCc2ccccc2)ncn1 [Compound D-2] |  |  | >100 | no change
28 | O=C(O)C(O)Cc1cc(CCc2ccccc2)ncn1 [Compound D-3] |  | > 367 |  | 
29 | COC(=O)C(=O)c1oc2ccc(OCc3ccc(F)cc3)cc2c1O [Compound E-1, [5-(4-Fluoro-benzyloxy)-3-hydroxy-benzofuran-2-yl]-2-oxo-acetic acid methyl ester] |  | 7.55 |  | 
30 | O=C(O)C(=O)c1oc2ccc(OCc3ccc(F)cc3)cc2c1O [Compound E-2, [5-(4-Fluoro-benzyloxy)-3-hydroxy-benzofuran-2-yl]-2-oxo-acetic acid] |  | 7.87 |  | 
31 | COC(=O)C(=O)c1oc2ccc(Cc3ccc(F)cc3)cc2c1O [Compound E-5, [5-(4-Fluoro-benzyl)-3-hydroxy-benzofuran-2-yl]-2-oxo-acetic acid methyl ester] | 128 to 130 °C |  |  | 
32 | O=C(O)C(=O)c1oc2ccc(Cc3ccc(F)cc3)cc2c1O [Compound E-6, [5-(4-Fluorobenzyl)-3-hydroxy-benzofuran-2-yl]-2-oxo-acetic acid] | 207 to 210 °C |  |  | 
33 | O=C(c1ccccn1)c1oc2ccc(Cc3ccc(F)cc3)cc2c1O [Compound E-8, 1-[5-(4-Fluoro-benzyl)-3-hydroxy-benzofuran-2-yl]-1-pyridine-2-yl-methanone] | 258 °C (dec.) |  |  | 
